Reference: the supplement of paper PMC10307832

What was measured:
Assay in all cases: relative viability (nuclei count vs DMSO), 5 days (fraction); higher = more cells survive
[1] = test system: NCI-H322M
Method in brief: (§1)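 Lung cancer cell lines, seeded in 1536-well plates, were treated the following day by pin tool with a single drug or with five library-drug doses (not always all listed) in √10 steps on top of a fixed anchor-drug dose. Cells were fixed and nuclei stained in one step after 5 days, and nuclei were counted. Relative viability is the nuclei count for treated wells divided by that for vehicle wells, reported as medians of duplicate plates.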

[2] = test system: ChaGo-K-1
Method in brief: as §1

[3] = test system: NCI-H838
Method in brief: as §1

[4] = test system: NCI-H2342
Method in brief: as §1

[5] = test system: NCI-H358
Method in brief: as §1

[6] = test system: LCLC-97TM1
Method in brief: as §1

[7] = test system: NCI-H1651
Method in brief: as §1

[8] = test system: LC-2-ad
Method in brief: as §1

[9] = test system: HCC-78
Method in brief: as §1

[10] = test system: PC-3 [JPC-3]
Method in brief: as §1

[11] = test system: HCC-15
Method in brief: as §1

[12] = test system: NCI-H2087
Method in brief: as §1

[13] = test system: NCI-H1944
Method in brief: as §1

[14] = test system: NCI-H1666
Method in brief: as §1

[15] = test system: LXF-289
Method in brief: as §1

[16] = test system: BEN
Method in brief: as §1

[17] = test system: H3255
Method in brief: as §1

[18] = test system: LU99A
Method in brief: as §1

[19] = test system: NCI-H650
Method in brief: as §1

[20] = test system: LK-2
Method in brief: as §1

[21] = test system: NCI-H596
Method in brief: as §1

Q: What does the source list for Clc1ccc(Nc2nnc(Cc3ccncc3)c3ccccc23)cc1 [Vatalanib] + NC(=O)Nc1cc(-c2cccc(F)c2)sc1C(=O)N[C@H]1CCCNC1 [AZD7762] (partner 0.2 µM)?
A: relative viability ([1]; first compound 0.04 µM): 0.543; relative viability ([1]; first compound 0.1265 µM): 0.527; relative viability ([1]; first compound 0.4 µM): 0.503; relative viability ([1]; first compound 4 µM): 0.47; relative viability ([2]; first compound 0.04 µM): 0.941; relative viability ([2]; first compound 0.1265 µM): 0.845; relative viability ([2]; first compound 0.4 µM): 0.88; relative viability ([2]; first compound 1.265 µM): 0.865; relative viability ([2]; first compound 4 µM): 0.876; relative viability ([3]; first compound 0.04 µM): 1.07; relative viability ([3]; first compound 0.1265 µM): 0.882; relative viability ([3]; first compound 0.4 µM): 1; relative viability ([3]; first compound 1.265 µM): 0.867; relative viability ([3]; first compound 4 µM): 0.87; relative viability ([4]; first compound 0.04 µM): 0.453; relative viability ([4]; first compound 0.1265 µM): 0.537; relative viability ([4]; first compound 0.4 µM): 0.378; relative viability ([4]; first compound 1.265 µM): 0.484; relative viability ([4]; first compound 4 µM): 0.45; relative viability ([5]; first compound 0.04 µM): 0.694; relative viability ([5]; first compound 0.1265 µM): 0.441; relative viability ([5]; first compound 0.4 µM): 0.57; relative viability ([5]; first compound 1.265 µM): 0.446; relative viability ([5]; first compound 4 µM): 0.481; relative viability ([6]; first compound 0.04 µM): 0.24; relative viability ([6]; first compound 0.1265 µM): 0.263; relative viability ([6]; first compound 0.4 µM): 0.222; relative viability ([6]; first compound 1.265 µM): 0.172; relative viability ([6]; first compound 4 µM): 0.23; relative viability ([7]; first compound 0.04 µM): 0.441; relative viability ([7]; first compound 0.1265 µM): 0.471; relative viability ([7]; first compound 0.4 µM): 0.46; relative viability ([7]; first compound 1.265 µM): 0.359; relative viability ([7]; first compound 4 µM): 0.4; relative viability ([8]; first compound 0.04 µM): 0.897; relative viability ([8]; first compound 0.1265 µM): 0.762; relative viability ([8]; first compound 0.4 µM): 0.92; relative viability ([8]; first compound 1.265 µM): 0.785; relative viability ([8]; first compound 4 µM): 0.817; relative viability ([9]; first compound 0.04 µM): 0.566; relative viability ([9]; first compound 0.1265 µM): 0.633; relative viability ([9]; first compound 0.4 µM): 0.59; relative viability ([9]; first compound 1.265 µM): 0.562; relative viability ([9]; first compound 4 µM): 0.547; relative viability ([10]; first compound 0.04 µM): 0.81; relative viability ([10]; first compound 0.1265 µM): 0.751; relative viability ([10]; first compound 0.4 µM): 0.674; relative viability ([10]; first compound 1.265 µM): 0.705; relative viability ([10]; first compound 4 µM): 0.728; relative viability ([11]; first compound 0.04 µM): 1.18; relative viability ([11]; first compound 0.1265 µM): 1.23; relative viability ([11]; first compound 0.4 µM): 1.13; relative viability ([11]; first compound 1.265 µM): 1.32; relative viability ([11]; first compound 4 µM): 1.54; relative viability ([12]; first compound 0.04 µM): 1.28; relative viability ([12]; first compound 0.1265 µM): 1.25; relative viability ([12]; first compound 0.4 µM): 1.4; relative viability ([12]; first compound 1.265 µM): 1.19; relative viability ([12]; first compound 4 µM): 1.15; relative viability ([13]; first compound 0.04 µM): 0.467; relative viability ([13]; first compound 0.1265 µM): 0.463; relative viability ([13]; first compound 0.4 µM): 0.623; relative viability ([13]; first compound 1.265 µM): 0.46; relative viability ([13]; first compound 4 µM): 0.468; relative viability ([14]; first compound 0.04 µM): 0.733; relative viability ([14]; first compound 0.1265 µM): 0.874; relative viability ([14]; first compound 0.4 µM): 0.855; relative viability ([14]; first compound 1.265 µM): 0.694; relative viability ([14]; first compound 4 µM): 0.762; relative viability ([15]; first compound 0.04 µM): 1.14; relative viability ([15]; first compound 0.1265 µM): 0.97; relative viability ([15]; first compound 0.4 µM): 1.21; relative viability ([15]; first compound 1.265 µM): 1.01; relative viability ([15]; first compound 4 µM): 1.03; relative viability ([16]; first compound 0.04 µM): 0.676; relative viability ([16]; first compound 0.1265 µM): 0.732; relative viability ([16]; first compound 0.4 µM): 0.596; relative viability ([16]; first compound 1.265 µM): 0.602; relative viability ([16]; first compound 4 µM): 0.685; relative viability ([17]; first compound 0.04 µM): 0.829; relative viability ([17]; first compound 0.1265 µM): 0.892; relative viability ([17]; first compound 0.4 µM): 0.832; relative viability ([17]; first compound 1.265 µM): 0.732; relative viability ([17]; first compound 4 µM): 0.773; relative viability ([18]; first compound 0.04 µM): 0.351; relative viability ([18]; first compound 0.1265 µM): 0.442; relative viability ([18]; first compound 0.4 µM): 0.345; relative viability ([18]; first compound 1.265 µM): 0.258; relative viability ([18]; first compound 4 µM): 0.287; relative viability ([19]; first compound 0.04 µM): 1.03; relative viability ([19]; first compound 0.1265 µM): 0.916; relative viability ([19]; first compound 0.4 µM): 0.937; relative viability ([19]; first compound 1.265 µM): 0.883; relative viability ([19]; first compound 4 µM): 0.907; relative viability ([20]; first compound 0.04 µM): 0.394; relative viability ([20]; first compound 0.1265 µM): 0.412; relative viability ([20]; first compound 0.4 µM): 0.496; relative viability ([20]; first compound 1.265 µM): 0.353; relative viability ([20]; first compound 4 µM): 0.446; relative viability ([21]; first compound 0.04 µM): 1.11; relative viability ([21]; first compound 0.1265 µM): 1.25; relative viability ([21]; first compound 0.4 µM): 1.18; relative viability ([21]; first compound 1.265 µM): 1.1; relative viability ([21]; first compound 4 µM): 0.907
